Data as given in paper PMC11995211, “Design, Synthesis, and Evaluation of a New Fluorescent Ligand for the M2 Muscarinic Acetylcholine Receptor” (ACS Medicinal Chemistry Letters, 2025).

How the values were obtained:
[1] = biological target: M2R; conditions: Figure 1, M2R antagonists; published data, reference numbers not given; cited from earlier work
[2] = biological target: T1, hM1R (Homo sapiens, UniProt P11229); test: Radioligand competition binding, [3H]-scopolamine (N-methyl), CHO cell membranes, hM1R; conditions: mean ± SD, n = 3; membranes from CHO cells transfected with hM1R; read-out: Receptor Ki M1
T1 construct: expressed in transfected cells; host or cells: CHO cell membranes
T1 sequence (P11229 1-460): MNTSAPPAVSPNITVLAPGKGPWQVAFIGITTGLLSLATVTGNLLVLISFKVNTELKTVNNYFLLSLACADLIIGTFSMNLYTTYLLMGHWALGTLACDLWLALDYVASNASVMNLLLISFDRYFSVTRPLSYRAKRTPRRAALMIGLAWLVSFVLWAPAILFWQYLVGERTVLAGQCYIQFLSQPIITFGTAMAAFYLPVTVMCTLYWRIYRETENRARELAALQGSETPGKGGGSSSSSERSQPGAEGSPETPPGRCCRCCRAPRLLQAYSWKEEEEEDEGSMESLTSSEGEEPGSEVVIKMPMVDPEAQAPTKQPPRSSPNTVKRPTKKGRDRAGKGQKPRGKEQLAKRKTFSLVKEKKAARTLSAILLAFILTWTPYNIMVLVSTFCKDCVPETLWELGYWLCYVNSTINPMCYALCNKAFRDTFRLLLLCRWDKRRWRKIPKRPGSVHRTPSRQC

[3] = literature statement, reference numbers not given; cited from earlier work
[4] = biological target: T2, M2R (Homo sapiens, UniProt P08172); test: BRET-based TRUPATH GoA activation assay, antagonism of carbachol-induced G protein activation; type: cell-based; conditions: for mode of antagonism of carbachol-induced G protein activation: TRUPATH GoA assay
T2 sequence (P08172 1-466): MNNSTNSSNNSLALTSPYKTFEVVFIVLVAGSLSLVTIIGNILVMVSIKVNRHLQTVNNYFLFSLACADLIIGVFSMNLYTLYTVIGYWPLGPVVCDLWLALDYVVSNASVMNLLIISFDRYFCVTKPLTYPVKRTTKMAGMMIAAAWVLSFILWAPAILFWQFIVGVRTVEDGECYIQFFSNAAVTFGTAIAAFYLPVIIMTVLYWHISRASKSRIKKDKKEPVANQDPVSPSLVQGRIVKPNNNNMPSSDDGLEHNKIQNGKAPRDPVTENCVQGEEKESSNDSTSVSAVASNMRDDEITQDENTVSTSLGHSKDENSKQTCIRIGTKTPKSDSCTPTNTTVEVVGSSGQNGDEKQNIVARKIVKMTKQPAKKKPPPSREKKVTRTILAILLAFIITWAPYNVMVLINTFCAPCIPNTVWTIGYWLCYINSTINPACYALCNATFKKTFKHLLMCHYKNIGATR

[5] = biological target: T3, hM4R (Homo sapiens, UniProt P08173); test: Radioligand competition binding, [3H]-scopolamine (N-methyl), CHO cell membranes, hM4R; conditions: mean ± SD, n = 3; membranes from CHO cells transfected with hM4R; read-out: Receptor Ki M4
T3 construct: expressed in transfected cells; host or cells: CHO cell membranes
T3 sequence (P08173 1-479): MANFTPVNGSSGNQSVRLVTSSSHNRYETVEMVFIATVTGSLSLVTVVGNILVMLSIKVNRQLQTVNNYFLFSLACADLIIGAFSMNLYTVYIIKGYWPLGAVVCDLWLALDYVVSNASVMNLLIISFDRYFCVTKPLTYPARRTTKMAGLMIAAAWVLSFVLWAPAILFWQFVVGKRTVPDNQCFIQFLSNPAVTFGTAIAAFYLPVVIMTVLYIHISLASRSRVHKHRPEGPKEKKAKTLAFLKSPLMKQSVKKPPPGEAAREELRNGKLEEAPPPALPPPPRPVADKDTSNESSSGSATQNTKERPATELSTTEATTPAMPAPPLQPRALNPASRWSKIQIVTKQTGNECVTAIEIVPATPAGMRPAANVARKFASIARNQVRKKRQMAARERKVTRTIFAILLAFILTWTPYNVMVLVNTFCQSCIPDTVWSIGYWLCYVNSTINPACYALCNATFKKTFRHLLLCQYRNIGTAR

[6] = system: M1; conditions: Figure 1; published data, reference numbers not given; cited from earlier work
[7] = biological target: T4, hM5R (Homo sapiens, UniProt P08912); test: Radioligand competition binding, [3H]-scopolamine (N-methyl), CHO cell membranes, hM5R; conditions: mean ± SD, n = 3; membranes from CHO cells transfected with hM5R; read-out: Receptor Ki M5
T4 construct: expressed in transfected cells; host or cells: CHO cell membranes
T4 sequence (P08912 1-532): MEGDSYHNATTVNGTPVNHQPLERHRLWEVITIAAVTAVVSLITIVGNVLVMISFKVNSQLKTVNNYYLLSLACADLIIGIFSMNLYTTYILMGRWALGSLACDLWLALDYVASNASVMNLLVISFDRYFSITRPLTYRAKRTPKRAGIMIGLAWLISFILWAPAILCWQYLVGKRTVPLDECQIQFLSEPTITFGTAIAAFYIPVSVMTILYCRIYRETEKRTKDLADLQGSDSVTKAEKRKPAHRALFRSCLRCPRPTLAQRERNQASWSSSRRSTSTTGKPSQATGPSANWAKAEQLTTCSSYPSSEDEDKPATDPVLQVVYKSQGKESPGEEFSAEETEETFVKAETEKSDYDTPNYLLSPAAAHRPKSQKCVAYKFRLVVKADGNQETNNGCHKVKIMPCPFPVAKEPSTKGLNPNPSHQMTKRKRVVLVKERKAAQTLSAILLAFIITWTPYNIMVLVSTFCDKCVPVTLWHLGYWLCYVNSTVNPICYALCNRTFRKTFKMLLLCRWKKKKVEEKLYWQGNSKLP

[8] = biological target: T5, hM3R (Homo sapiens, UniProt P20309); test: Radioligand competition binding, [3H]-scopolamine (N-methyl), CHO cell membranes, hM3R; conditions: mean ± SD, n = 3; membranes from CHO cells transfected with hM3R; read-out: Receptor Ki M3
T5 construct: expressed in transfected cells; host or cells: CHO cell membranes
T5 sequence (P20309 whole entry): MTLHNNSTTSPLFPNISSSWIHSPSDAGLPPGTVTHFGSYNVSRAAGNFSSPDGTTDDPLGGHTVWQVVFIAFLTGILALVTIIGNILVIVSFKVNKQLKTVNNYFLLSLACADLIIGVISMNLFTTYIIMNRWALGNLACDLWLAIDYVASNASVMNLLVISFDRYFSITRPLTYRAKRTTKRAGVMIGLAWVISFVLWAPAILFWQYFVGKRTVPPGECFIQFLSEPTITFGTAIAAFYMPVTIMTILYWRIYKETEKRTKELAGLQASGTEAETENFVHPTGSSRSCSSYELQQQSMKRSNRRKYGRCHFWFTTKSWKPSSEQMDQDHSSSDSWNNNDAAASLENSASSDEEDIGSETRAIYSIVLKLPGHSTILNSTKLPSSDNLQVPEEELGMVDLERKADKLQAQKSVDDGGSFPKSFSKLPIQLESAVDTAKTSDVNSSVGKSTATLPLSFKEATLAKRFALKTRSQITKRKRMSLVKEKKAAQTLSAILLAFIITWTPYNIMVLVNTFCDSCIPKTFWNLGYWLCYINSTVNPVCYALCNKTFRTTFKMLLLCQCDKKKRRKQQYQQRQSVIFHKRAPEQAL

[9] = system: M3; conditions: Figure 1; published data, reference numbers not given; cited from earlier work
[10] = system: M4; conditions: Figure 1; published data, reference numbers not given; cited from earlier work
[11] = system: M5; conditions: Figure 1; published data, reference numbers not given; cited from earlier work
[12] = biological target: T6, hM2R (Homo sapiens, UniProt P08172); test: Radioligand competition binding, [3H]-scopolamine (N-methyl), CHO cell membranes, hM2R; conditions: mean ± SD, n = 3; membranes from CHO cells transfected with hM2R; read-out: Receptor Ki M2
T6 construct: expressed in transfected cells; host or cells: CHO cell membranes
T6 sequence (P08172 1-466): T2 sequence (P08172 1-466)

## CCN(CC)CC1CCCCN1CC(=O)N1c2ccccc2C(=O)Nc2cccnc21 (stereo not drawn) [Compound 2]
[1]
  Ki: 105 nM

## Nc1ccccc1C(=O)N1CCC(N2CCC(Cc3ccc(S(=O)(=O)c4cccc(Cl)c4)cc3)CC2)CC1 [Compound 28]
[2]
  Ki: 425 ± 32 nM
[3]
  oral bioavailability: good
[4]
  mode of antagonism of carbachol-induced G protein activation: competitive antagonists
[5]
  Ki: 9.4 ± 1.1 nM

## CCCC(C)(C)C(=O)N(CC)CCCC1CCN(CC(=O)N2c3ccc(Cl)cc3C(=O)Nc3cccnc32)CC1 [Compound 1]
[1]
  Ki: 30.2 nM
[6]
  M2R selectivity M1/M2: 35

## NCCOCCOCCNc1ccccc1C(=O)N1CCC(N2CCC(Cc3ccc(S(=O)(=O)c4cccc(Cl)c4)cc3)CC2)CC1 [Compound 30]
[2]
  Ki: 143 ± 11 nM
[7]
  Ki: 8.6 ± 0.7 nM
[5]
  Ki: 7.4 ± 0.6 nM
[8]
  Ki: 496 ± 36 nM

## Cc1ccccc1C(=O)N1CCC(N2CCC(Cc3ccc(S(=O)(=O)c4ccc5c(c4)OCO5)cc3)CC2)CC1 [Compound 3]
[9]
  M2R selectivity M3/M2: 730
[3]
  pharmacokinetics: poor
[10]
  M2R selectivity M4/M2: 37
[11]
  M2R selectivity M5/M2: 280
[1]
  Ki: 0.02 nM
[6]
  M2R selectivity M1/M2: 1400

## NCCOCCOCCC(=O)NCCOCCOCCNc1ccccc1C(=O)N1CCC(N2CCC(Cc3ccc(S(=O)(=O)c4cccc(Cl)c4)cc3)CC2)CC1.O=C(O)C(F)(F)F [Compound 32]
[2]
  Ki: 113 ± 8 nM
[4]
  mode of antagonism of carbachol-induced G protein activation: competitive antagonists
[4]; log10 of IC50 (negative values), HEK 293T, compound 20 min, then 10 μM carbachol 15 min, Hill-slope = 1, n = 3
  Log(IC50) ± SD (M), carbachol-induced GoA protein activation: –6.97 ± 0.12 M
[12]
  Ki: 1.1 ± 0.1 nM
[7]
  Ki: 8.5 ± 0.9 nM
[5]
  Ki: 6.2 ± 0.9 nM
[8]
  Ki: 373 ± 38 nM
